# Key:
# [1] = tested on: different prostate cancer cell lines; assay: Proliferation of different prostate cancer cell lines; format: cell-based; conditions: at low μM levels
# Description: (§1) Further structural improvement was accomplished by replacing the methoxy side chains on the quinazoline ring with propoxy functions. Both 33 and 44 were effective in suppressing the proliferation of different prostate cancer cell lines at low μM levels. In addition, both agents were submitted to the Developmental Therapeutic Program (DTP) at the National Cancer Institute (NCI) for screening against sixty human tumor cells lines, representing leukemia, melanoma, and cancers of lung, colon, brain, ovary, breast, prostate, and kidney.
# Akt = assay: Western blot analysis of Akt phosphorylation in PC-3 cells; format: cell-based, human; conditions: for effect on Akt phosphorylation: Western blot
# Description: (§2) (A) Left panel, Time- and dose-dependent effect of doxazosin on the cell viability of PC-3 cells in 1% FBS-supplemented RPMI 1640 medium. Values obtained from six replicates were plotted at each time point at the indicated concentrations of doxazosin. Right panel, induction of poly(ADP-ribose) polymerase (PARP) cleavage by doxazosin at the indicated concentrations after 48-h treatment. PARP proteolysis to the apoptosis-specific 85-kd fragment was monitored by Western blotting. Although there was no substantial accumulation of the 85-kd fragment, significant decrease in the level of native protein was noted. (B) Dose- and time-dependent (upper and lower panels, respectively) effects of doxazosin on Akt phosphorylation. (C) dose-dependent effect of doxazosin on ERK phosphorylation. PC-3 cells were treated with doxazosin at the indicated concentrations for 24 h or at 25 μM for the indicated times and lysed, and proteins in the resulting supernatants were resolved on SDS-PAGE and subjected to Western blot analysis. The phosphorylation status of Akt and ERKs was determined by immunoblotting with the respective phospho-specific antibodies. Unphosphorylated Akt and ERKs, as immunostained by anti-Akt and anti-ERK antibodies, were used as internal standards for the comparison of phospho-Akt and phospho-ERK levels among samples of different preparations. The blots are representative of three independent experiments.
# (§3) (B) Western blot analysis of […] proteolysis and Akt dephosphorylation in PC-3 cells treated with the indicated concentrations of 33 for 48 h. (C) Effects of compound 44 on Akt phosphorylation in PC-3 cells treated with the indicated concentrations for 48 h.
# PC-3 cells (1.5×106) treated with the test agent at the indicated concentrations in RPMI 1640 medium for 24 h were collected and sonicated. Protein concentrations of the lysates were determined by using a Bradford protein assay kit (Bio-Rad, Hercules, Calif.); equivalent amounts of proteins from each lysate were resolved in 10% SDS-polyacrylamide gel and then transferred onto Immobilon-nitrocellulose membranes (Millipore, Bellerica, MA) in a semidry transfer cell. The transblotted membrane was washed twice with Tris-buffered saline (TBS) containing 0.1% Tween 20 (TBST). After blocking with TBST containing 5% nonfat milk for 40 min, the membrane was incubated with the primary antibody (1:1000 dilution) in TBST-1% nonfat milk at 4° C. overnight. After treatment with the primary antibody, the membrane was washed three times with TBST for a total of 15 min, followed by goat anti-rabbit or anti-mouse IgG-horseradish peroxidase conjugates (diluted 1:3000) for 1 h at room temperature and wash three times with TBST for a total of 1 h. The immunoblots were visualized by enhanced chemiluminescence.
# PC-3 cells [2] = assay: Cell viability / apoptotic death of PC-3 cells in 1% FBS-supplemented RPMI 1640 medium; format: cell-based, human; conditions: for IC50: 1% FBS-supplemented medium
# Description: as §2, §3
# (§4) Effect of the test agent on cell viability was assessed by the MTT {[3-(4,5-dimethylthiazol-2-yl)-2,5-diphenyl-2H-tetrazolium bromide]} assay in 96-well, flat-bottomed plates, in which 8,000 PC-3 or DU-145 cells/well were seeded. Cells were exposed to the test agent at the indicated concentrations, in six replicates, in 10% FBS-supplemented-RPMI-1640 medium at 37° C. in 5% CO2 for 48 hr. The medium was removed and replaced by 150 μL of 0.5 mg/mL of MTT in RPMI-1640 medium, and cells were incubated in the CO2 incubator at 37° C. for 2 h. Supernatants were removed from the wells, and the reduced MTT dye was solubilized with 200 μL/well DMSO. Absorbance was determined on a plate reader at 570 nm.
# Doxazosin induced apoptosis, in part, by facilitating Akt dephosphorylation. […] The potency of doxazosin in inducing apoptosis, however, was moderate.
# PC-3 cells [3] = assay: MTT cell viability assay, PC-3 cells in 10% FBS medium; format: cell-based, human; conditions: RPMI 1640 with 10% FBS, means ± S.D. (n = 6)
# Procedure: PC-3 (p53−/−) human androgen-nonresponsive prostate cancer cells were purchased from the American Type Tissue Collection (Manassas, Va.). Cells were cultured in RPMI 1640 medium (Gibco, Grand Island, N.Y.) supplemented with 10% fetal bovine serum (FBS; Gibco) at 37° C. in a humidified incubator containing 5% CO2.
# as §4
# All compounds were evaluated for their ability to induce apoptotic death in human androgen-independent PC-3 prostate cancer in RPMI 1640 medium containing 10% fetal bovine serum (FBS). For representative compounds tested in DU-145 and LNCaP prostate cancer cells, the IC50 values for inhibiting cell proliferation were similar in these three cell lines irrespective of differences in androgen sensitivity, PTEN mutation, the functional status of p53 and Rb, and other biomarkers.
# [4] = tested on: sixty human tumor cells lines; assay: NCI Developmental Therapeutic Program screening against sixty human tumor cell lines; format: cell-based; conditions: for GI50: Homo sapiens, mean among sixty cell lines, read-out: mean GI50 (concentration resulting in 50% growth inhibition); for sensitivity of all tested cell lines to growth inhibitory effects: sixty cell lines
# Description: as §1
# [5] = tested on: PC-3 cells overexpressing Akt^T308D/S473D; assay: Viability of PC-3 cells transiently transfected with constitutively active Akt; format: cell-based, human; conditions: 25 μM, 1% FBS-supplemented medium, 24 h, versus empty pcDNA vector
# Procedure: (A) Expression of Akt^T308D/S473D in PC-3 transient transfection. Western blot analysis used antibodies against Akt, and the HA tag. B) Viability of PC-3 cells overexpressing Akt^T308D/S473D vis-à-vis cells transfected with empty pcDNA vector (mock) in the presence of 25 μM doxazosin in 1% FBS-supplemented medium for 24 h. Values are means±S.D. (n=3).
# The constitutively active Akt construct HA-PKB-T308D/S473D was kindly provided by Dr. Brain Hemmings (Friedrich Miescher Institute, Basel, Switzerland). PC-3 cells were seeded into T-75 flasks (1.5×10^6/flask). Aliquots containing 3 μg of each plasmid or a control pcDNA3.1(+) vector in 750 μl of Opti-MEM medium (Invitrogen-Life Technologies, Inc.,) was incubated with 9 μl of the FuGene 6 reagent (Roche Diagnostics Corp., Indianapolis, Ind.) for 15 min. Each flask was washed with Opti-MEM medium and then received the plasmid-FuGene 6 mixture and 4 ml of Opti-MEM medium. The flask was placed in a CO2 incubator for 4 h, and the transfection medium was replaced with 10% FBS-supplemented RPMI 1640. […]
# To examine the causal relationship between Akt deactivation and doxazosin-mediated apoptosis, the protective effect of the transient transfection of constitutively active Akt, Akt^T308D/S473D (ref. 14), on drug-induced PC-3 cell death, was assessed. […]
# serum proteins = conditions: cited from earlier work
# immunoprecipitated Akt = immunoprecipitated Akt (Homo sapiens, UniProt P31749); assay: Kinase activity of immunoprecipitated Akt; format: biochemical
# ERKs = assay: Western blot analysis of ERK phosphorylation in PC-3 cells; format: cell-based, human; conditions: even at 50 μM
# Description: (A) Left panel, Time- and dose-dependent effect of doxazosin on the cell viability of PC-3 cells in 1% FBS-supplemented RPMI 1640 medium. Values obtained from six replicates were plotted at each time point at the indicated concentrations of doxazosin. Right panel, induction of poly(ADP-ribose) polymerase (PARP) cleavage by doxazosin at the indicated concentrations after 48-h treatment. PARP proteolysis to the apoptosis-specific 85-kd fragment was monitored by Western blotting. Although there was no substantial accumulation of the 85-kd fragment, significant decrease in the level of native protein was noted. (B) Dose- and time-dependent (upper and lower panels, respectively) effects of doxazosin on Akt phosphorylation. (C) dose-dependent effect of doxazosin on ERK phosphorylation. […] The phosphorylation status of Akt and ERKs was determined by immunoblotting with the respective phospho-specific antibodies. […]
# PC-3 cells (1.5×106) treated with the test agent at the indicated concentrations in RPMI 1640 medium for 24 h were collected and sonicated. Protein concentrations of the lysates were determined by using a Bradford protein assay kit (Bio-Rad, Hercules, Calif.); equivalent amounts of proteins from each lysate were resolved in 10% SDS-polyacrylamide gel and then transferred onto Immobilon-nitrocellulose membranes (Millipore, Bellerica, MA) in a semidry transfer cell. […]
# Sequence of immunoprecipitated Akt (P31749 whole entry): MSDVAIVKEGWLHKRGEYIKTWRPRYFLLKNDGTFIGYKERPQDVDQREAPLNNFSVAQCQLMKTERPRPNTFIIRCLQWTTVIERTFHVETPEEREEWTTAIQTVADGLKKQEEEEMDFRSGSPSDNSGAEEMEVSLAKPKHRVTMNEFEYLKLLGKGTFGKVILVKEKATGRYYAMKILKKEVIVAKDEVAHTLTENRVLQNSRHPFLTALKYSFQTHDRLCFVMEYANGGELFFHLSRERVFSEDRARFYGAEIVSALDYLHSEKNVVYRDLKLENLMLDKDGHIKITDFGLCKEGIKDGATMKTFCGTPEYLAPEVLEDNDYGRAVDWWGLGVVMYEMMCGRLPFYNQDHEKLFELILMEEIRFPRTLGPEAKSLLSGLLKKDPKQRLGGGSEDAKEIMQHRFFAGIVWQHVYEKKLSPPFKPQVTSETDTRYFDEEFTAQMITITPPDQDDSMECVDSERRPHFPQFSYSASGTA
compound,measurement,setting,value
"COc1cc2nc(N3CCN(S(=O)(=O)c4ccc(-c5ccccc5)cc4)CC3)nc(N)c2cc1OC [Compound 33, 2-[4-(Biphenyl-4-sulfonyl)-piperazin-1-yl]-6,7-dimethoxy-quinazolin-4-ylamine]",suppressing the proliferation,[1],effective
same,effect on Akt phosphorylation,Akt,inhibition of Akt activation
same,IC50,"PC-3 cells [2]; Homo sapiens, 48 h, read-out: IC50",~2.5 µM
same,IC50,"PC-3 cells [3]; Homo sapiens, PC-3, 48 h",4 to 5 µM
same,IC50,PC-3 cells [3]; 48 h,4.2 ± 0.8 µM
same,GI50,[4],2.2 µM
same,sensitivity of all tested cell lines to growth inhibitory effects,[4],high degree of sensitivity
"CCCOc1cc2nc(N3CCN(S(=O)(=O)c4ccc(-c5ccccc5)cc4)CC3)nc(N)c2cc1OCCC [Compound 44, 2-[4-(Biphenyl-4-sulfonyl)-piperazin-1-yl]-6,7-dipropoxy-quinazolin-4-yl-amine]",suppressing the proliferation,[1],effective
same,concentration at which dephosphorylation of phospho-Akt was evident (as low as),"Akt; 48 h, Western blot (FIG. 6C)",1 µM
same,effect on Akt phosphorylation,Akt,dephosphorylation of phospho-Akt in a dose-dependent manner
same,IC50,"PC-3 cells [3]; Homo sapiens, PC-3, 48 h",2.5 µM
same,GI50,[4],1.5 µM
same,sensitivity of all tested cell lines to growth inhibitory effects,[4],high degree of sensitivity
COc1cc2nc(N3CCN(C(=O)C4COc5ccccc5O4)CC3)nc(N)c2cc1OC (stereo not drawn) [Doxazosin],protection by Akt^T308D/S473D against drug-induced apoptotic death,[5],"partial, yet significant, protection"
same,binding affinity with serum proteins,serum proteins,high binding affinity
same,inhibitory effect on kinase activity of immunoprecipitated Akt,immunoprecipitated Akt,no inhibitory effects
same,effect on Akt phosphorylation,Akt,Akt dephosphorylation in a dose- and time-dependent manner
same,effect on phosphorylation status of ERKs,ERKs,did not affect
same,apoptotic death,"PC-3 cells [2]; 1% FBS-supplemented RPMI 1640, 10 μM",no appreciable apoptotic death
same,drug-induced apoptosis,"PC-3 cells [2]; 1% FBS-supplemented RPMI 1640, 25 μM and up",susceptible to the drug-induced apoptosis
same,IC50,"PC-3 cells [2]; read-out: IC50, apoptosis-inducing potency",20 µM
same,IC50,PC-3 cells [3]; 48 h,45 µM
"CCCCOc1cc2nc(N3CCN(S(=O)(=O)c4ccc(-c5ccccc5)cc4)CC3)nc(N)c2cc1OCCCC [Compound 46, 2-[4-(Biphenyl-4-sulfonyl)-piperazin-1-yl]-6,7-dibutoxy-quinazolin-4-ylamine]",IC50,"PC-3 cells [3]; Homo sapiens, PC-3, 48 h",3.5 ± 0.4 µM
"COc1cc2nc(N3CCN(C(=O)c4cccc5ccccc45)CC3)nc(N)c2cc1OC [Compound 7, [4-(4-Amino-6,7-dimethoxy-quinazolin-2-yl)-piperazin-1-yl]-naphthalen-1-yl-methanone]",IC50,"PC-3 cells [3]; Homo sapiens, PC-3, 48 h",59 ± 4 µM
"COc1cc2nc(N3CCN(S(=O)(=O)c4ccccc4[N+](=O)[O-])CC3)nc(N)c2cc1OC [Compound 15, 6,7-Dimethoxy-2-[4-(2-nitro-benzenesulfonyl)-piperazin-1-yl]-quinazolin-4-yl-amine]",IC50,"PC-3 cells [3]; Homo sapiens, PC-3, 48 h",35 ± 4 µM
"COc1cc2nc(N3CCN(S(=O)(=O)c4ccc(N)cc4N)CC3)nc(N)c2cc1OC [Compound 27, 4-[4-(4-Amino-6,7-dimethoxy-quinazolin-2-yl)-piperazine-1-sulfonyl]-benzene-1,3-diamine]",IC50,"PC-3 cells [3]; Homo sapiens, PC-3, 48 h",67 ± 5 µM
"COc1cc2nc(N3CCN(C(=O)c4ccc(C#N)cc4)CC3)nc(N)c2cc1OC [Compound 2, 4-[4-(4-Amino-6,7-dimethoxy-quinazolin-2-yl)-piperazine-1-carbonyl]-benzonitrile]",IC50,"PC-3 cells [3]; Homo sapiens, PC-3, 48 h",68 ± 6 µM
"COc1cc2nc(N3CCN(S(=O)(=O)c4ccc(-c5ccc(S(C)(=O)=O)cc5)cc4)CC3)nc(N)c2cc1OC [Compound 38, 2-[4-(4′-Methanesulfonyl-biphenyl-4-sulfonyl)-piperazin-1-yl]-6,7-dimethoxy-quinazolin-4-ylamine]",IC50,"PC-3 cells [3]; Homo sapiens, PC-3, 48 h",7.2 ± 0.5 µM
"COc1cc2nc(N3CCN(S(=O)(=O)c4ccc(-c5ccc(C(C)(C)C)cc5)cc4)CC3)nc(N)c2cc1OC [Compound 40, 2-[4-(4′-tert-Butyl-biphenyl-4-sulfonyl)-piperazin-1-yl]-6,7-dimethoxy-quinazolin-4-yl-amine]",IC50,"PC-3 cells [3]; Homo sapiens, PC-3, 48 h",10 ± 2 µM
"COc1cc2nc(N3CCN(S(=O)(=O)c4ccc(Br)cc4)CC3)nc(N)c2cc1OC [Compound 12, 2-[4-(4-Bromo-benzenesulfonyl)-piperazin-1-yl]-6,7-dimethoxy-quinazolin-4-yl-amine]",IC50,"PC-3 cells [3]; Homo sapiens, PC-3, 48 h",20 ± 2 µM

# Source: patent US8377948B2, “Antitumor agents and methods of their use” (The Ohio State University Research Foundation, priority 2004, dated 2013)
